Values quoted from earlier work in publication PMC12051155 (Molecular Metabolism, 2025).

half-life in humans: 13 h
Structure (SMILES): CCCCCCCCCCCCCCCC(=O)N[C@@H](CCC(=O)NCCCC[C@H](NC(=O)[C@H](C)NC(=O)[C@H](C)NC(=O)[C@H](CCC(N)=O)NC(=O)CNC(=O)[C@H](CCC(=O)O)NC(=O)[C@H](CC(C)C)NC(=O)[C@H](Cc1ccc(O)cc1)NC(=O)[C@H](CO)NC(=O)[C@H](CO)NC(=O)[C@@H](NC(=O)[C@H](CC(=O)O)NC(=O)[C@H](CO)NC(=O)[C@@H](NC(=O)[C@H](Cc1ccccc1)NC(=O)[C@@H](NC(=O)CNC(=O)[C@H](CCC(=O)O)NC(=O)[C@H](C)NC(=O)[C@@H](N)Cc1cnc[nH]1)[C@@H](C)O)[C@@H](C)O)C(C)C)C(=O)N[C@@H](CCC(=O)O)C(=O)N[C@@H](Cc1ccccc1)C(=O)N[C@H](C(=O)N[C@@H](C)C(=O)N[C@@H](Cc1c[nH]c2ccccc12)C(=O)N[C@@H](CC(C)C)C(=O)N[C@H](C(=O)N[C@@H](CCCNC(=N)N)C(=O)NCC(=O)N[C@@H](CCCNC(=N)N)C(=O)NCC(=O)O)C(C)C)[C@@H](C)CC)C(=O)O [liraglutide]
